Laboratory results as given in BigSolDB 2.1.

CNC(=O)c1cc(Oc2ccc(NC(=O)Nc3ccc(Cl)c(C(F)(F)F)c3)c(F)c2)ccn1
solubility (mole fraction)
Conditions	278.15 K	283.15 K	288.15 K	293.15 K	298.15 K	303.15 K	308.15 K	313.15 K
in acetone	0.0014	0.00173	0.00199	0.00247	0.00323	0.00375	0.00443	0.00526
in acetonitrile	0.00014	0.000162	0.000168	0.000203	0.000248	0.000299	0.000381	0.000492
in ethanol	0.000641	0.000677	0.000739	0.000865	0.000911	0.0011	0.00126	0.00145
in isopropanol	0.000657	0.000679	0.000698	0.000769	0.000918	0.00109	0.00137	0.00161
in methanol	0.000315	0.000351	0.00041	0.000422	0.000475	0.000581	0.000689	0.000797
in n-propanol	0.000701	0.000769	0.000814	0.000908	0.00099	0.0012	0.00147	0.00172
